Like-named read-outs stand apart in the source and are kept apart here.
Legend:
[1] = test system: symmetric di-methyl arginine in Z-138 cells; test: Z-138 Methylation Assay (In Cell Western for symmetric di-methyl arginine and DNA content); type: cell-based; settings: Homo sapiens, read-out: ICW EC50
Summary of the method: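 In-cell western: symmetric di-methyl arginine signal ratioed to DRAQ5 DNA content after 96 h compound exposure of Z-138 cells seeded at 50,000 cells/mL.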

[2] = test system: Z-138 cell line; test: Z-138 Proliferation Assay (Cell Titer Glo, 5 days); type: cell-based; settings: Homo sapiens, 120 h, Z-138 cells, 5 days, read-out: Proliferation EC50
Summary of the method: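 Viability via CellTiter-Glo luminescence (ATP) after 5-day incubation at 37 °C, 5% CO2. Compounds tested in triplicate, nine 3-fold steps, highest final concentration 20 μM in 0.2% DMSO; 50% inhibitory concentration by 4-parameter fit of normalized curves.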

[3] = molecular target: PRMT5/MEP50 (Homo sapiens (Human), UniProt O14744); test: PRMT5 Biochemical Assay (PRMT5/MEP50 enzyme assay on peptide substrate, 3H-SAM Flashplate)
Sequence of PRMT5/MEP50 (O14744 other isoform, or with tags, fused parts or gaps): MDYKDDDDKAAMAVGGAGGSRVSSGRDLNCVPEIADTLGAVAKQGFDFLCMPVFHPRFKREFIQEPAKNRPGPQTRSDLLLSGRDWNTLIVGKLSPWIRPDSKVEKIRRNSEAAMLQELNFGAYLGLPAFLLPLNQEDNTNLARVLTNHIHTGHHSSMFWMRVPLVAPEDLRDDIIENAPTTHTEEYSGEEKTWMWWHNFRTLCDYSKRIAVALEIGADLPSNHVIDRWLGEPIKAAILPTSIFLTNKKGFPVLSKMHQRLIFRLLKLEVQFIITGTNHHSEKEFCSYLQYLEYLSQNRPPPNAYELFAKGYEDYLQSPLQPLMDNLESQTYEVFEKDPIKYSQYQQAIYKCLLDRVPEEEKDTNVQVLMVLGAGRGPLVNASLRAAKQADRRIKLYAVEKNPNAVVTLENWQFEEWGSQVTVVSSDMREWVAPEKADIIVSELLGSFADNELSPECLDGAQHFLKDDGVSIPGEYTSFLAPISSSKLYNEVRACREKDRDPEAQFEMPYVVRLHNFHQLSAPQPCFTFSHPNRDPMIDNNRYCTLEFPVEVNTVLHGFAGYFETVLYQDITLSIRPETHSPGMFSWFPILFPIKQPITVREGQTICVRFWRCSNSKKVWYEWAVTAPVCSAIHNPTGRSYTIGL
Sequence of PRMT5/MEP50 (Q9BQA1 other isoform, or with tags, fused parts or gaps partner): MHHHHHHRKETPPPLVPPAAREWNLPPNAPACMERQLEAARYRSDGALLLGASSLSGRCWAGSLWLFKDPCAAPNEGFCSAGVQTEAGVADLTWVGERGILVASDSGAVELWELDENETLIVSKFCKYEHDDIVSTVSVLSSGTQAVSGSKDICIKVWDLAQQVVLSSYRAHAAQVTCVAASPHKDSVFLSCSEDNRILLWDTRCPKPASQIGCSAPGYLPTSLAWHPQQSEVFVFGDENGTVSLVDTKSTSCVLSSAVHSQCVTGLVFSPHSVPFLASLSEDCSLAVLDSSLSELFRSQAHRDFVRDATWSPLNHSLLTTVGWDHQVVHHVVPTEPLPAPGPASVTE
Source text: S-adenosylmethionine (SAM), S-adenosylhomocysteine (SAH), bicine, KCl, Tween20, dimethylsulfoxide (DMSO), bovine skin gelatin (BSG), and Tris(2-carboxyethyl)phosphine hydrochloride solution (TCEP) were purchased from Sigma-Aldrich at the highest level of purity possible. ^3H-SAM was purchase from American Radiolabeled Chemicals with a specific activity of 80 Ci/mmol. 384-well streptavidin Flashplates were purchased from PerkinElmer.
Peptide representative of human histone H4 residues 1-15 was synthesized with a C-terminal linker-affinity tag motif and a C-terminal amide cap by 21st Century Biochemicals.
The amplified genes were sublconed into pENTR/D/TEV (Life Technologies) and subsequently transferred by Gateway™ attL×attR recombination to pDEST8 baculovirus expression vector (Life Technologies).
Protein over-expression was accomplished by infecting exponentially growing Spodoptera frugiperda (SF9) cell culture at 1.2×10^6 cell/ml with a 5000 fold dilution of BIIC stock. Infections were carried out at 27° C. for 72 hours, harvested by centrifugation, and stored at −80° C. for purification.
Flag-PRMT5/6His-MeP50 was eluted with 300 mM Imidazole in the same buffer.
General Procedure for PRMT5/MEP50 Enzyme Assays on Peptide Substrates.
The assays were all performed in a buffer consisting of 20 mM Bicine (pH=7.6), 1 mM TCEP, 0.005% BSG, and 0.002% Tween20, prepared on the day of use. […] DMSO (1 ul) was added to Columns 11, 12, 23, 24, rows A-H for the maximum signal control and 1 ul of SAH, a known product and inhibitor of PRMT5/MEP50, was added to columns 11, 12, 23, 24, rows I-P for the minimum signal control. A cocktail (40 ul) containing the PRMT5/MEP50 enzyme and the peptide was added by Multidrop Combi (Thermo-Fisher). The compounds were allowed to incubate with PRMT5/MEP50 for 30 min at 25 degrees Celsius, then a cocktail (10 ul) containing ^3H-SAM was added to initiate the reaction (final volume=51 ul). […] The assays were stopped by the addition of non-radioactive SAM (10 ul) to a final concentration of 600 uM, which dilutes the ^3H-SAM to a level where its incorporation into the peptide substrate is no longer detectable. 50 ul of the reaction in the 384-well polypropylene plate was then transferred to a 384-well Flashplate and the biotinylated peptides were allowed to bind to the streptavidin surface for at least 1 hour before being washed three times with 0.1% Tween20 in a Biotek ELx405 plate washer. The plates were then read in a PerkinElmer TopCount plate reader to measure the quantity of ^3H-labeled peptide bound to the Flashplate surface, measured as disintegrations per minute (dpm) or alternatively, referred to as counts per minute (cpm).
[formula] [formula] Where dpm=disintegrations per minute, cmpd=signal in assay well, and min and max are the respective minimum and maximum signal controls.
[formula] [formula] Where top and bottom are the normally allowed to float, but may be fixed at 100 or 0 respectively in a 3-parameter fit. The Hill Coefficient normally allowed to float but may also be fixed at 1 in a 3-parameter fit. Y is the % inhibition and X is the compound concentration.

| SMILES | EC50 ([1]; In Cell Western methylation) | EC50 ([2]; Cell Titer Glo) | IC50 ([3]; PRMT5 biochemical assay) | EC50 [1] | EC50 [2] | IC50 [3] |
| --- | --- | --- | --- | --- | --- | --- |
| CNC(=O)[C@H]1C[C@@H](Nc2cc(C(=O)NC[C@H](O)CN3CCc4ccccc4C3)ncn2)C1 [Compound 513] | < 100 nM | 101 to 1000 nM | < 100 nM |  |  |  |
| Cc1cnc(NC2CN(C)C2)cc1C(=O)NC[C@H](O)CN1CCc2ccccc2C1 [Compound 403] | > 1000 nM | > 20000 nM | < 100 nM |  |  |  |
| CC(C)CC(=O)N1CC(Nc2cc(C(=O)NC[C@H](O)CN3CCc4ccccc4C3)ncn2)C1 [Compound 417] | < 100 nM | < 100 nM | < 100 nM |  |  |  |
| CC(=O)N1CC(Nc2cc(C(=O)NC[C@H](O)CN3CCc4cc(C)ccc4C3)ncn2)C1 [Compound 674] | < 100 nM | 1000 to 10000 nM | < 100 nM |  |  |  |
| CN(C)CCNc1cc(C(=O)NC[C@H](O)CN2CCc3ccccc3C2)ncn1 [Compound 353] |  |  |  | 101 to 1000 nM | 10000 to 50000 nM | < 100 nM |
| CC(=O)N1CC[C@@H](Nc2cc(C(=O)NC[C@H](O)CN3CCc4ccccc4C3)ncn2)C1 [Compound 642] | < 100 nM | 101 to 1000 nM | < 100 nM |  |  |  |
| NC(=O)c1ccc(C(=O)NCC(O)CN2CCc3ccccc3C2)cc1 (stereo not drawn) [Compound 22] |  |  |  | 101 to 1000 nM | > 20000 nM | 101 to 1000 nM |
| CC(C)CC(=O)N1CCC(Nc2cc(C(=O)NC[C@H](O)CN3CCc4ccccc4C3)ccn2)CC1 [Compound 471] | < 100 nM | < 100 nM | < 100 nM |  |  |  |
| CN(C)C(=O)[C@H]1CC[C@H](Nc2cc(C(=O)NC[C@H](O)CN3CCc4ccccc4C3)ncn2)CC1 [Compound 587] | < 100 nM | < 100 nM | < 100 nM |  |  |  |
| CC(=O)N1CCC(Nc2cc(C(=O)NC[C@H](O)CN3CCc4cc(C)ccc4C3)ccn2)CC1 [Compound 682] | < 100 nM | 101 to 1000 nM | < 100 nM |  |  |  |
| CC(=O)N1CCC(Nc2cc(C(=O)NC[C@H](O)CN3CCc4ccccc4C3C)ccn2)CC1 (stereo partly drawn) [Compound 694] | < 100 nM | 101 to 1000 nM | < 100 nM |  |  |  |
| COCCNc1cc(C(=O)NC[C@H](O)CN2CCc3ccccc3C2)ncn1 [Compound 352] |  |  |  | < 100 nM | 1000 to 10000 nM | 101 to 1000 nM |
| O=C(NC[C@H](O)CN1CCc2ccccc2C1)c1cc(NC2CCC2)nc(N2CCOCC2)c1 [Compound 349] |  |  |  | < 100 nM | < 100 nM | < 100 nM |
| O=C(NC[C@H](O)CN1CCc2ccccc2C1)c1cc(N[C@H]2C[C@@H](O)C2)ncn1 [Compound 491] | < 100 nM | 101 to 1000 nM | < 100 nM |  |  |  |
| O=C(NC[C@H](O)CN1CCc2ccccc2C1)c1ccc(OCCN2CCCCC2)cc1 [Compound 371] |  |  |  | < 100 nM | 1000 to 10000 nM | < 100 nM |
| O=C(NC[C@H](O)CN1CCc2ccccc2C1)c1cc(N[C@H]2CCOC2)ncn1 [Compound 351] |  |  |  | < 100 nM | 101 to 1000 nM | < 100 nM |
| CC(=O)N[C@H]1C[C@H](Nc2cc(C(=O)NC[C@H](O)CN3CCc4ccccc4C3)ncn2)C1 [Compound 440] | < 100 nM | 101 to 1000 nM | < 100 nM |  |  |  |
| O=C(NC[C@H](O)CN1CCc2ccccc2C1)c1ccc(OCCCN2CCCC2)cc1 [Compound 372] |  |  |  | < 100 nM | 101 to 1000 nM | < 100 nM |
| CCS(=O)(=O)CCNCC1CN2C=NC(C(=O)NC[C@H](O)CN3CCc4ccccc4C3)=CC2=N1 (stereo partly drawn) [Compound 617] | > 1000 nM | > 5000 nM | 101 to 1000 nM |  |  |  |
| O=C(NC[C@H](O)CN1CCc2ccccc2C1)c1cc(N[C@H]2C[C@H](C(=O)N3CCC3)C2)ncn1 [Compound 509] | < 100 nM | < 100 nM | < 100 nM |  |  |  |
| CNC(=O)[C@H]1CC[C@H](Nc2cc(C(=O)NC[C@H](O)CN3CCc4ccccc4C3)ncn2)CC1 [Compound 602] | < 100 nM | 101 to 1000 nM | < 100 nM |  |  |  |

From US10307413B2, “Tetrahydro- and dihydro-isoquinoline PRMT5 inhibitors and uses thereof” (Epizyme, Inc., priority 2013, dated 2019)
